The values below come from patent US12780800B1, “Triazole-pyridinyl substituted azacyclohexyl acetic acid compounds as LPA receptor antagonists” (Viva Star Biosciences Limited, priority 2021, dated 2022).

Some results are limits rather than exact numbers.

For orientation: IC50 means the concentration that inhibits the measured activity by half.

The test deals with T1, LPA1 (Homo sapiens, UniProt Q92633).
T1 construct: ProLink (PK) beta-galactosidase enzyme-fragment tag; host or cells: CHO-K1
T1 sequence (Q92633 whole entry, the tested form may be a part): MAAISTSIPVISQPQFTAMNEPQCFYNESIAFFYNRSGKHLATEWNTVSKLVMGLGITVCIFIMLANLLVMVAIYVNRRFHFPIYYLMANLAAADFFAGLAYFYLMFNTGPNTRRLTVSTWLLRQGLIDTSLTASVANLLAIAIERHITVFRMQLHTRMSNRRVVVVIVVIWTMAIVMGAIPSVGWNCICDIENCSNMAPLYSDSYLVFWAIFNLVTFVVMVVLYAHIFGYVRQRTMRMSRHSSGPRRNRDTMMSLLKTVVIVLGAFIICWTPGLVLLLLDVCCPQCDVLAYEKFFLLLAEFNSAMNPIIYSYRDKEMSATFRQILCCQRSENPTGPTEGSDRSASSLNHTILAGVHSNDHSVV
The test is described as follows: LPA1 calcium flux assay (LPA1 functional antagonist assay). Format: cell-based. The note with it: PathHunter CHO-K1 EDG2 β-Arrestin cell line; calcium indicator dye; stimulated with EC80 concentration of LPA; FLIPR Tetra. As to the method: Following overnight culture, cells were loaded with calcium indicator dye from the HitHunter Calcium No WashPLUS Assay kit (Eurofins DiscoverX Corporation, Cat #93-0091) for 45 minutes at 37° C. […] After compound addition, assay plates were equilibrated to room temperature for 30 minutes. […] IC50 values were determined by Chemical and Biological Information System from ChemInnovation Software, Inc. The compounds of this invention were tested for their activity to inhibit LPA1 as determined in an LPA1 functional antagonist assay as described herein.
For the compound `CCc1nc(-c2nnn(C)c2Cn2ccc(CC3CC3)c(C)c2=O)ccc1N1C[C@@H](CC(=O)O)CC(F)(F)C1` [Example 10, (S)-2-(1-(6-(5-((4-(cyclopropylmethyl)-3-methyl-2-oxopyridin-1(2H)-yl)methyl)-1-methyl-1H-1,2,3-triazol-4-yl)-2-ethylpyridin-3-yl)-5,5-difluoropiperidin-3-yl)acetic acid], the 50% inhibitory concentration (IC50) is 0.1 to 0.5 µM.
In the case of `CCc1nc(-c2nnn(C)c2Cn2ccc(CC3CC3)c(C)c2=O)ccc1N1C[C@H](CC(=O)O)CC(F)(F)C1` [Example 11, (R)-2-(1-(6-(5-((4-(cyclopropylmethyl)-3-methyl-2-oxopyridin-1(2H)-yl)methyl)-1-methyl-1H-1,2,3-triazol-4-yl)-2-ethylpyridin-3-yl)-5,5-difluoropiperidin-3-yl)acetic acid] it was more than 5 µM; in that of `CCc1nc(-c2nnn(C)c2Cn2cc(CC(C)C)ccc2=O)ccc1N1C[C@@H](CC(=O)O)CC(F)(F)C1` [Example 12, (S)-2-(1-(2-ethyl-6-(5-((5-isobutyl-2-oxopyridin-1(2H)-yl)methyl)-l-methyl-1H-1,2,3-triazol-4-yl)pyridin-3-yl)-5,5-difluoropiperidin-3-y)acetic acid], less than 0.1 µM; in that of `CCc1nc(-c2nnn(C)c2Cn2cc(CC3CC3)ccc2=O)ccc1N1C[C@@H](CC(=O)O)CC(F)(F)C1` [Example 13, (S)-2-(1-(6-(5-((5-(cyclopropylmethyl)-2-oxopyridin-1(2H)-yl)methyl)-1-methyl-1H-1,2,3-triazol-4-yl)-2-ethylpyridin-3-yl)-5,5-difluoropiperidin-3-yl)acetic acid], less than 0.1 µM.
With `CCc1nc(-c2nnn(C)c2Cn2cc(CC3CCC3)ccc2=O)ccc1N1C[C@@H](CC(=O)O)CC(F)(F)C1` [Example 14, (S)-2-(1-(6-(5-((5-(cyclobutylmethyl)-2-oxopyridin-1(2H)-y)methyl)-1-methyl-1H-1,2,3-triazol-4-yl)-2-ethylpyridin-3-yl)-5,5-difluoropiperidin-3-yl)acetic acid], the IC50 was less than 0.1 µM.
As for `CCc1nc(-c2nnn(C)c2Cn2cc(C3CC3)ccc2=O)ccc1N1C[C@@H](CC(=O)O)CC(F)(F)C1` [Example 15, (S)-2-(1-(6-(5-((5-cyclopropyl-2-oxopyridin-1(2H)-yl)methyl)-1-methyl-1H-1,2,3-triazol-4-yl)-2-ethylpyridin-3-yl)-5,5-difluoropiperidin-3-yl)acetic acid], the 50% inhibitory concentration (IC50) is less than 0.1 µM.
In the case of `CCc1nc(-c2nnn(C)c2Cn2cc(C(C)C)ccc2=O)ccc1N1C[C@@H](CC(=O)O)CC(F)(F)C1` [Example 16, (S)-2-(1-(2-ethyl-6-(5-((5-isopropyl-2-oxopyridin-1(2H)-yl)methyl)-1-methyl-1H-1,2,3-triazol-4-yl)pyridin-3-yl)-5,5-difluoropiperidin-3-yl)acetic acid], the IC50 was less than 0.1 µM.
For the compound `CCc1nc(-c2nnn(C)c2Cn2cc(C3CCC3)ccc2=O)ccc1N1C[C@@H](CC(=O)O)CC(F)(F)C1` [Example 17, (S)-2-(1-(6-(5-((5-cyclobutyl-2-oxopyridin-1(2H)-yl)methyl)-1-methyl-1H-1,2,3-triazol-4-yl)-2-ethylpyridin-3-yl)-5,5-difluoropiperidin-3-yl)acetic acid], the half-inhibitory concentration (IC50) is less than 0.1 µM.
For the compound `CCc1nc(-c2nnn(C)c2Cn2cc(C3CC3)c(C)cc2=O)ccc1N1C[C@@H](CC(=O)O)CC(F)(F)C1` [Example 18], the half-maximal inhibitory concentration (IC50) lay within 0.5 to 5 µM.
For the compound `CCc1nc(-c2nnn(C)c2Cn2cc(C)c(C3CC3)cc2=O)ccc1N1C[C@@H](CC(=O)O)CC(F)(F)C1` [Example 19, (S)-2-(1-(6-(5-((4-cyclopropyl-5-methyl-2-oxopyridin-1(2H)-yl)methyl)-1-methyl-1H-1,2,3-triazol-4-yl)-2-ethylpyridin-3-yl)-5,5-difluoropiperidin-3-yl)acetic acid], the half-inhibitory concentration (IC50) is more than 5 µM.
For `CCc1nc(-c2nnn(C)c2Cn2ccc(C#CC3CC3)cc2=O)ccc1N1C[C@@H](CC(=O)O)CC(F)(F)C1` [Example 20, (S)-2-(1-(6-(5-((4-(cyclopropylethynyl)-2-oxopyridin-1(2H)-yl)methyl)-1-methyl-1H-1,2,3-triazol-4-yl)-2-ethylpyridin-3-yl)-5,5-difluoropiperidin-3-yl)acetic acid], the 50% inhibitory concentration (IC50) is more than 5 µM.
For `CCc1nc(-c2nnn(C)c2Cn2cc(C#CC3CC3)ccc2=O)ccc1N1C[C@@H](CC(=O)O)CC(F)(F)C1` [Example 21, (S)-2-(1-(6-(5-((5-(cyclopropylethynyl)-2-oxopyridin-1(2H)-yl)methyl)-1-methyl-1H-1,2,3-triazol-4-yl)-2-ethylpyridin-3-yl)-5,5-difluoropiperidin-3-yl)acetic acid], the IC50 lay within 0.5 to 5 µM.
`CCCc1ccc(=O)n(Cc2c(-c3ccc(N4CCC[C@H](CC(=O)O)C4)c(CC)n3)nnn2C)c1` [Example 22, (R)-2-(1-(2-ethyl-6-(1-methyl-5-((2-oxo-5-propylpyridin-1(2H)-yl)methyl)-1H-1,2,3-triazol-4-yl)pyridin-3-yl)piperidin-3-yl)acetic acid]: the IC50 fell in the range of 0.1 to 0.5 µM.
Turning to `CCCc1ccc(=O)n(Cc2c(-c3ccc(N4CCC[C@@H](CC(=O)O)C4)c(CC)n3)nnn2C)c1` [Example 23, (S)-2-(1-(2-ethyl-6-(1-methyl-5-((2-oxo-5-propylpyridin-1(2H)-yl)methyl)-1H-1,2,3-triazol-4-yl)pyridin-3-yl)piperidin-3-yl)acetic acid], the IC50 was more than 5 µM.
For `CCc1nc(-c2nnn(C)c2Cn2cc(OC3CC3)ccc2=O)ccc1N1C[C@@H](CC(=O)O)CC(F)(F)C1` [Example 24, (S)-2-(1-(6-(5-((5-cyclopropoxy-2-oxopyridin-1(2H)-yl)methyl)-1-methyl-1H-1,2,3-triazol-4-yl)-2-ethylpyridin-3-yl)-5,5-difluoropiperidin-3-yl)acetic acid], the IC50 was less than 0.1 µM.
As to `CCCOc1ccc(=O)n(Cc2c(-c3ccc(N4C[C@@H](CC(=O)O)CC(F)(F)C4)c(CC)n3)nnn2C)c1` [Example 25, (S)-2-(1-(2-ethyl-6-(1-methyl-5-((2-oxo-5-propoxypyridin-1 (2H)-yl)methyl)-1H-1,2,3-triazol-4-yl)pyridin-3-yl)-5,5-difluoropiperidin-3-yl)acetic acid], the IC50 lay in the range of 0.1 to 0.5 µM.
For `CCOc1ccc(=O)n(Cc2c(-c3ccc(N4C[C@@H](CC(=O)O)CC(F)(F)C4)c(CC)n3)nnn2C)c1` [Example 26, (S)-2-(1-(6-(5-((5-ethoxy-2-oxopyridin-1(2H)-yl)methyl)-1-methyl-1H-1,2,3-triazol-4-yl)-2-ethylpyridin-3-yl)-5,5-difluoropiperidin-3-yl)acetic acid], the IC50 is 0.1 to 0.5 µM.
Take `CCc1nc(-c2nnn(C)c2Cn2cc(N3CCC3)ccc2=O)ccc1N1C[C@@H](CC(=O)O)CC(F)(F)C1` [Example 27, (S)-2-(1-(6-(5-((5-(azetidin-1-yl)-2-oxopyridin-1(2H)-yl)methyl)-1-methyl-1H-1,2,3-triazol-4-yl)-2-ethylpyridin-3-yl)-5,5-difluoropiperidin-3-yl)acetic acid]: the IC50 was in the range of 0.5 to 5 µM.
In the case of `CCc1nc(-c2nnn(C)c2Cn2cc(-n3cccn3)ccc2=O)ccc1N1C[C@@H](CC(=O)O)CC(F)(F)C1` [Example 28, (S)-2-(1-(2-ethyl-6-(1-methyl-5-((2-oxo-5-(1H-pyrazol-1-yl)pyridin-1 (2H)-y)methyl)-1H-1,2,3-triazol-4-yl)pyridin-3-yl)-5,5-difluoropiperidin-3-yl)acetic acid] it was 0.5 to 5 µM; in that of `CCCc1cn(Cc2c(-c3ccc(N4C[C@@H](CC(=O)O)CC(F)(F)C4)c(CC)n3)nnn2C)c(=O)cn1` [Example 29, (S)-2-(1-(2-ethyl-6-(1-methyl-5-((2-oxo-5-propylpyrazin-1(2H)-yl)methyl)-1H-1,2,3-triazol-4-yl)pyridin-3-yl)-5,5-difluoropiperidin-3-yl)acetic acid], 0.1 to 0.5 µM; in that of `CCCc1cc(=O)n(Cc2c(-c3ccc(N4C[C@@H](CC(=O)O)CC(F)(F)C4)c(CC)n3)nnn2C)cn1` [Example 31], more than 5 µM.
In the case of `CCCc1ccnn(Cc2c(-c3ccc(N4C[C@@H](CC(=O)O)CC(F)(F)C4)c(C)n3)nnn2C)c1=O` [Example 32, (S)-2-(5,5-difluoro-1-(2-methyl-6-(1-methyl-5-((6-0xo-5-propylpyridazin-1(6H)-yl)methyl)-1H-1,2,3-triazol-4-yl)pyridin-3-yl)piperidin-3-yl)acetic acid], the 50% inhibitory concentration (IC50) fell in the range of 0.5 to 5 µM.
In the case of `CCCc1cnn(Cc2c(-c3ccc(N4C[C@@H](CC(=O)O)CC(F)(F)C4)c(C)n3)nnn2C)c(=O)c1` [Example 33, (S)-2-(5,5-difluoro-1-(2-methyl-6-(1-methyl-5-((6-oxo-4-propylpyridazin-1(6H)-yl)methyl)-1H-1,2,3-triazol-4-yl)pyridin-3-yl)piperidin-3-yl)acetic acid] it was more than 5 µM; in that of `CCCc1ccc(=O)n(Cc2c(-c3ccc(N4C[C@@H](CC(=O)O)CC(F)(F)C4)c(C)n3)nnn2C)n1` [Example 34, (S)-2-(5,5-difluoro-1-(2-methyl-6-(1-methyl-5-((6-oxo-3-propylpyridazin-1(6H)-yl)methyl)-1H-1,2,3-triazol-4-yl)pyridin-3-yl)piperidin-3-yl)acetic acid], 0.5 to 5 µM; in that of `CCc1nc(-c2nnn(C)c2Cn2nc(CC3CC3)ccc2=O)ccc1N1C[C@@H](CC(=O)O)CC(F)(F)C1` [Example 35, (S)-2-(1-(6-(5-((3-(cyclopropyImethyl)-6-oxopyridazin-1(6H)-yl)methyl)-1-methyl-1H-1,2,3-triazol-4-yl)-2-ethylpyridin-3-yl)-5,5-difluoropiperidin-3-yl)acetic acid], 0.1 to 0.5 µM.
